The test system of test [1] is unrelated peptide with N-terminal biotin. The experiment in a line: Surface plasmon resonance, reference channel with unrelated biotinylated control peptide. Format: binding. The settings on record: 100 μM injected. From the text: The biotinylated peptide was immobilized on a sensor chip (Sensor Chip SA BiaCore) by non-covalent capture to streptavidin according to manufacturer instructions. An unrelated peptide with N-terminal biotin was coupled to a reference channel. […] At the end of the injection phase, the sensor surface was washed (Wash arrow FIG. 1A) with […] pH7.4, 0.15 M NaCl.
In general terms: Surface plasmon resonance follows binding to a sensor surface in real time, without labels.

For test [2], the system named is Peptide (NH2-)FLNCCPGCCMEP(-COOH) [SEQ ID No 6]. The experiment in a line: Complex formation with tetracysteine-tagged peptide in MOPS/MES/EDT buffer, LC-MS analysis. It counts as binding. As to conditions: probe in DMSO + 1 mM peptide, stirred 10-30 minutes. On the procedure: Experiments were performed according to Nature Protocols Vol.3 No.9, 1527-1534, (Adams & Tsien) with minor modifications.
Materials: Peptide (NH2—)[…](—COOH) [SEQ ID No 6], M.w: 1316.63, supplied by INNOVAGEN, Sweden, MOPS sodium salt FW: 231.2 CAS [71119-22-7], MES sodium salt FW: 164.16 CAS [19767-45-4], and EDT FW:94.2 CAS [540-63-6] were used as received.
HPLC analyses employed a Waters Alliance 2795 LC system, equipped with an XBridge C18 3.0×50 mm 3.5 μm column. The mass detector had polarity ES+/polarity ES-. Solvents, A: 0.1 M NH3 in milliQ water, B: MeOH. Gradient, A: 95% 0.1 min, 0.1-4 min A:95% to B:100%, 4.0-4.6 min B:100%.
The radiodetector employed was a Raytest Star (solid cell). Chromatography with radiodetection was performed using a Kromasil C18, 5μ 250×10 mm column, and an isocratic eluent composed of 35% acetonitrile in 50 mM ammonium acetate, at a flow rate of 2.0 mL/min.
To this solution was added 200 μL of 1 mM PSMXB-4 (in DMSO). […] The reaction mixture was stirred for 30 minutes. […] The mass peaks corresponded to dianionic and trianionic species.
To this solution was added 200 μL of 1 mM PSMXB-6 (in DMSO). […] The reaction mixture was stirred for 30 minutes. […] The mass peak corresponded to the dianionic species.
The reaction mixture is stirred for 10 minutes. […] The mass peak corresponded to the dianionic species. […] HPLC purification allowed isolation of the pure, tritiated complex.

Turning to `COc1ccc2c(-c3ccc(F)cc3)c3cc([As]4SCCS4)c(=O)cc-3oc2c1[As]1SCCS1` [PSMXB-6, 2,5-di-(1,3,2-Dithiarsolan-2yl)-9(4-fluorophenyl)-6-methoxy-3-fluorone], the “interaction with unrelated control peptide” value in test [1] is given as “No interaction was detected”. In test [2], the “complex formation with peptide by LC-MS” value is recorded as “mass spectrum consistent with the complex”.

Take “2,5-di-(1,3,2-Dithiarsolan-2yl)-9(4-fluorophenyl)-6-[^3H3]methoxy-3-fluorone [6-[^3H3CO]-PSMXB-6]”: in test [2], the “complex formation with peptide by LC-MS” value was “complete conversion into the complex”.

Consider `O=c1ccc2c(-c3ccc(F)cc3)c3ccc(O)c([As]4SCCS4)c3oc-2c1[As]1SCCS1` [PSMXB-4, 2,5-di-(1,3,2-dithiarsolan-2-yl)-9-(4-fluorophenyl)-6-hydroxy-3-fluorone], for which the “complex formation with peptide by LC-MS” value in test [2] was “mass spectrum consistent with the complex”.
